Earlier results as cited in patent US11796546B2, “Methods for quantifying drug concentration in a prodrug composition” (GENZYME CORPORATION, priority 2019, dated 2023).

Key:
[1] = test system: type 2 diabetes mellitus patients

For “HdSQGTFTSDLSKQK(γE-palmitate)ESKAAQDFIEWLKAGGPSSGAPPPS-NH2 [SAR425899]”, the in vivo clearance is listed as “rapid in vivo clearance” and the “glycemic control and weight loss” value [1] is listed as “facilitate glycemic control and weight loss”.
